Reference: PubChem BioAssay (NCI)
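Five concentrations, 48 hours, 96-well plates. TGI is the concentration that stops growth completely.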 Where a SMILES comes first, the peptide text is derived from it. [ ]: non-standard residue; d: D form. The star is where a group is joined. Benzoyl(4-OMe) = COc1ccc(C(=O)*)cc1; 2Thi = N[CH](Cc1cccs1)C(=O)O

Experiments:
Experiment in all cases: DTP human tumour cell line panel, 48 h
NCI-H23 lung = tested on: NCI-H23 lung
BT-549 breast = tested on: BT-549 breast
UACC-257 melanoma = tested on: UACC-257 melanoma
NCI-H226 lung = tested on: NCI-H226 lung
HCT-116 colon = tested on: HCT-116 colon
A498 renal = tested on: A498 renal
K-562 leukemia = tested on: K-562 leukemia
SR leukemia = tested on: SR leukemia
A549 NSCLC = tested on: A549 NSCLC
HOP-62 NSCLC = tested on: HOP-62 NSCLC
IGROV1 ovarian = tested on: IGROV1 ovarian
HT29 colon = tested on: HT29 colon
MDA-MB-435 = tested on: MDA-MB-435
OVCAR-8 ovarian = tested on: OVCAR-8 ovarian
LOX IMVI melanoma = tested on: LOX IMVI melanoma
SK-MEL-5 melanoma = tested on: SK-MEL-5 melanoma
COLO 205 colon = tested on: COLO 205 colon
M14 melanoma = tested on: M14 melanoma
UACC-62 melanoma = tested on: UACC-62 melanoma
KM12 colon = tested on: KM12 colon
HS 578T breast = tested on: HS 578T breast
U251 CNS = tested on: U251 CNS
SK-MEL-28 melanoma = tested on: SK-MEL-28 melanoma
EKVX NSCLC = tested on: EKVX NSCLC
MOLT-4 leukemia = tested on: MOLT-4 leukemia
OVCAR-3 ovarian = tested on: OVCAR-3 ovarian
OVCAR-5 ovarian = tested on: OVCAR-5 ovarian
MCF7 breast = tested on: MCF7 breast
PC-3 prostate = tested on: PC-3 prostate
HCC-2998 colon = tested on: HCC-2998 colon
CCRF-CEM leukemia = tested on: CCRF-CEM leukemia
SF-539 CNS = tested on: SF-539 CNS
SW-620 colon = tested on: SW-620 colon
NCI-H522 lung = tested on: NCI-H522 lung
SF-295 CNS = tested on: SF-295 CNS
ACHN renal = tested on: ACHN renal
SNB-19 CNS = tested on: SNB-19 CNS
SN12C renal = tested on: SN12C renal
SNB-75 CNS = tested on: SNB-75 CNS
HOP-92 NSCLC = tested on: HOP-92 NSCLC
SF-268 CNS = tested on: SF-268 CNS
RPMI-8226 leukemia = tested on: RPMI-8226 leukemia
UO-31 renal = tested on: UO-31 renal
SK-OV-3 ovarian = tested on: SK-OV-3 ovarian
OVCAR-4 ovarian = tested on: OVCAR-4 ovarian
DU-145 prostate = tested on: DU-145 prostate
786-0 renal = tested on: 786-0 renal
MDA-MB-231 breast = tested on: MDA-MB-231 breast
NCI-H460 lung = tested on: NCI-H460 lung
SK-MEL-2 melanoma = tested on: SK-MEL-2 melanoma
TK-10 renal = tested on: TK-10 renal
HCT-15 colon = tested on: HCT-15 colon
HL-60(TB) leukemia = tested on: HL-60(TB) leukemia
CAKI-1 renal = tested on: CAKI-1 renal
NCI/ADR-RES ovarian = tested on: NCI/ADR-RES ovarian
T-47D breast = tested on: T-47D breast
MALME-3M melanoma = tested on: MALME-3M melanoma
RXF 393 renal = tested on: RXF 393 renal

Work on CCC(C)C(NC(=O)C(Cc1cccs1)NC(=O)C(CC(C)C)NC(=O)C(CC(C)C)NC(=O)C(CCCCN)NC(=O)C(CCCN=C(N)N)NC(=O)c1ccc(OC)cc1)C(=O)NC(CC(C)C)C(N)=O (stereo not given) ({Benzoyl(4-OMe)}-RKLL[2Thi]IL-NH2; configuration not given here) yielded a TGI (NCI-H23 lung) greater than 100 µM, a TGI (BT-549 breast) greater than 100 µM and a TGI (UACC-257 melanoma) greater than 100 µM. For the same compound, the TGI (NCI-H226 lung) was greater than 100 µM.

In the case of O=C(CNc1cccc(Cl)c1)Nn1c(-c2ccccc2)nc2ccccc2c1=O, the TGI (HCT-116 colon) is reported as 4.07 µM, the TGI (A498 renal) is reported as 43.5 µM and the TGI (K-562 leukemia) is reported as 18.1 µM. The TGI (NCI-H23 lung) was 8.11 µM, the TGI (SR leukemia) was greater than 100 µM and the TGI (BT-549 breast) was 3.95 µM. For the same compound, the TGI (A549 NSCLC) was 46.4 µM, the TGI (HOP-62 NSCLC) was 30.8 µM and the TGI (IGROV1 ovarian) was 17.9 µM. The TGI (HT29 colon) was 24.9 µM, the TGI (MDA-MB-435) was 15.2 µM and the TGI (OVCAR-8 ovarian) was greater than 100 µM. It also gave a TGI (LOX IMVI melanoma) of 2.74 µM, a TGI (SK-MEL-5 melanoma) of 2.88 µM and a TGI (COLO 205 colon) of 20.2 µM. The TGI (M14 melanoma) was 6.19 µM, the TGI (UACC-62 melanoma) was 7.83 µM and the TGI (KM12 colon) was 24.9 µM. The TGI (HS 578T breast) was 65 µM, the TGI (U251 CNS) was 3.41 µM and the TGI (SK-MEL-28 melanoma) was 29.9 µM. For the same compound, the TGI (EKVX NSCLC) was 34.4 µM, the TGI (MOLT-4 leukemia) was 8.62 µM and the TGI (OVCAR-3 ovarian) was 21.1 µM. For the same compound, the TGI (OVCAR-5 ovarian) was 32.8 µM, the TGI (MCF7 breast) was 4.32 µM and the TGI (PC-3 prostate) was 22.9 µM. The TGI (HCC-2998 colon) was 23.9 µM, the TGI (CCRF-CEM leukemia) was 8.73 µM and the TGI (SF-539 CNS) was 13.6 µM. It also gave a TGI (SW-620 colon) of 7.37 µM, a TGI (UACC-257 melanoma) of 42.2 µM and a TGI (NCI-H522 lung) of 2.98 µM. The TGI (SF-295 CNS) was 28.5 µM, the TGI (NCI-H226 lung) was 35.3 µM and the TGI (ACHN renal) was 26.5 µM. The TGI (SNB-19 CNS) was 31.6 µM, the TGI (SN12C renal) was 13.6 µM and the TGI (SNB-75 CNS) was 13.8 µM. It also gave a TGI (HOP-92 NSCLC) of 7.45 µM, a TGI (SF-268 CNS) of 22.9 µM and a TGI (RPMI-8226 leukemia) greater than 100 µM. For the same compound, the TGI (UO-31 renal) was 31 µM, the TGI (SK-OV-3 ovarian) was 23.7 µM and the TGI (OVCAR-4 ovarian) was 19.3 µM. It also gave a TGI (DU-145 prostate) of 44.9 µM, a TGI (786-0 renal) of 7.24 µM and a TGI (MDA-MB-231 breast) of 10.8 µM. For the same compound, the TGI (NCI-H460 lung) was 29.2 µM.

With CC(=O)c1sc2c(c1OC(=O)c1ccc(Cl)cc1)c(=O)n(-c1ccccc1)c(=S)n2-c1ccccc1 the TGI (HCT-116 colon) was 25.2 µM, the TGI (A498 renal) was 3.64 µM and the TGI (SK-MEL-2 melanoma) was 3.7 µM. For the same compound, the TGI (K-562 leukemia) was 38.4 µM, the TGI (NCI-H23 lung) was greater than 68.6 µM and the TGI (SR leukemia) was 23.1 µM. For the same compound, the TGI (TK-10 renal) was 87.4 µM, the TGI (A549 NSCLC) was greater than 76.1 µM and the TGI (HOP-62 NSCLC) was 24.1 µM. For the same compound, the TGI (HCT-15 colon) was 25.8 µM, the TGI (IGROV1 ovarian) was 37.8 µM and the TGI (HT29 colon) was 8.95 µM. For the same compound, the TGI (MDA-MB-435) was greater than 36.8 µM, the TGI (OVCAR-8 ovarian) was 15.1 µM and the TGI (LOX IMVI melanoma) was 6.92 µM. It also gave a TGI (SK-MEL-5 melanoma) of 7.61 µM, a TGI (COLO 205 colon) of 13.8 µM and a TGI (M14 melanoma) of 5.48 µM. It also gave a TGI (UACC-62 melanoma) of 42.6 µM, a TGI (KM12 colon) of 44.7 µM and a TGI (HS 578T breast) of 9.72 µM. For the same compound, the TGI (U251 CNS) was 15 µM, the TGI (HL-60(TB) leukemia) was 30.6 µM and the TGI (SK-MEL-28 melanoma) was greater than 31.8 µM. For the same compound, the TGI (EKVX NSCLC) was 77.8 µM, the TGI (MOLT-4 leukemia) was 6.68 µM and the TGI (OVCAR-3 ovarian) was 41.6 µM. The TGI (OVCAR-5 ovarian) was 13.2 µM, the TGI (MCF7 breast) was 71.9 µM and the TGI (PC-3 prostate) was greater than 100 µM. It also gave a TGI (HCC-2998 colon) greater than 58.3 µM, a TGI (CCRF-CEM leukemia) of 7.41 µM and a TGI (SF-539 CNS) of 5.06 µM. It also gave a TGI (SW-620 colon) of 70.7 µM, a TGI (UACC-257 melanoma) of 38.4 µM and a TGI (NCI-H522 lung) of 18.9 µM. For the same compound, the TGI (SF-295 CNS) was 5.88 µM, the TGI (NCI-H226 lung) was 5.56 µM and the TGI (ACHN renal) was 15.7 µM. It also gave a TGI (SNB-19 CNS) greater than 42.9 µM, a TGI (CAKI-1 renal) greater than 47 µM and a TGI (SN12C renal) of 6.43 µM. The TGI (SNB-75 CNS) was 23.3 µM, the TGI (NCI/ADR-RES ovarian) was 23 µM and the TGI (HOP-92 NSCLC) was 15.8 µM. The TGI (SF-268 CNS) was greater than 100 µM, the TGI (RPMI-8226 leukemia) was 8.56 µM and the TGI (UO-31 renal) was 9.24 µM. The TGI (SK-OV-3 ovarian) was 7.03 µM, the TGI (T-47D breast) was greater than 69.4 µM and the TGI (OVCAR-4 ovarian) was 65.5 µM. The TGI (DU-145 prostate) was greater than 100 µM, the TGI (786-0 renal) was 15.9 µM and the TGI (MALME-3M melanoma) was 4.51 µM. For the same compound, the TGI (MDA-MB-231 breast) was 19.2 µM, the TGI (RXF 393 renal) was 5.91 µM and the TGI (NCI-H460 lung) was 22.1 µM.
